For orientation: IC50 means the concentration that gives 50% inhibition.

The structures appear in SMILES notation.

Experimental findings from US12264134B2 (Merck Sharp & Dohme LLC, priority 2018, dated 2025) are described below.

Experiment [1] concerns the target T1, IDO1 (Homo sapiens, UniProt P14902). The experiment can be described thus: IDO1 Cellular Assay in HeLa Cells Stimulated with IFNγ. Format: cell-based. As to conditions: read-out: HeLa Cell Potency, IC50.
Experiment [2] concerns the target T1, IDO1. Briefly: IDO1 Human Whole blood Assay. Type of experiment: cell-based. On the set-up: Human whole blood was drawn in sodium heparin coated tubes from healthy internal donors; from tissue; host or cells: human whole blood from healthy donors, stimulated with LPS and IFNγ. As to conditions: LPS and IFNγ stimulated, 18 h, read-out: Human Whole Blood Potency, IC50. The protocol: IDO1Human Whole blood Assay
Compounds to be tested were serially diluted in ten 3-fold steps in DMSO starting from 10 mM. 3 μL of compound dilutions or DMSO alone were then dispensed from the dilution plate into a polypropylene 96-well assay plate containing 97 μL of RPMI medium using an Echo 555 acoustic liquid handler (Labcyte). LPS and IFNγ was prepared in RPMI medium to a 10× of final conc. (1000 ng/mL), final concentration is 100 ng/mL.
Human whole blood was drawn in sodium heparin coated tubes from healthy internal donors. 240 μL of blood was transferred to each of the wells of a v-bottom 96 well plate. 30 μL of compound was transferred from intermediate dilution plate, and incubated for 15 min. 30 μL from stimulants was then transferred to blood and mixed thoroughly. Plate was covered with breathable membrane and incubated at 37° C. for overnight (18 h).
On day 2, isotope labeled standard solutions of kynurenine and tryptophan was made in water at 10× concentration and 30 μL was added to the blood at 3 μM final concentration. The assay plates were centrifuged at 300×G for 10 min with no brake to separate plasma from red blood cells. 60 μL of plasma samples was removed without disturbing red blood cells. Plasma was diluted with RPMI in 1:1 ratio and proteins were precipitated out with two volumes of Acetonitrile. The plates were centrifuged at 4000×G for 60 min. 20 μL of supernatant was carefully transferred to a 384 well plate containing 40 μL of 0.1% formic acid in water and analyzed by LC/MS/MS.
LC/MS/MS analyses were performed using Thermo Fisher's LX4-TSQ Quantum Ultra system. This system consists of four Agilent binary high-performance liquid chromatography (HPLC) pumps and a TSQ Quantum Ultra triple quadrupole MS/MS instrument. For each sample, 5 μL were injected onto an Atlantis T3 column (2.1 mm×150 mm, 3 μm particle size) from Waters. The mobile phase gradient pumped at 0.8 mL/min was used to elute the analytes from the column at 25° C. The elution started at 0% B increasing linearly to 25% B at 6.5 min, holding at 25% for 1 min, re-equilibrating to 10 min. Mobile phase A consisted of 0.1% formic acid in water. Mobile phase B consisted of 0.1% of formic acid in acetonitrile. Data were acquired in positive mode using a HESI interface. The operational parameters for the TSQ Quantum Ultra instrument were a spray voltage of 4000 V, capillary temperature of 380° C., vaporizer temperature 400° C., shealth gas 60 arbitrary units, Aux gas 20 arbitrary units, tube lens 85 and collision gas 1.2 mTorr. SRM chromatograms of kynurenine (Q1: 209.2>Q3:94.0) and internal standard (Q1: 215.3>Q3:98.2) were collected for 90 sec. The peak area was integrated by Xcalibur Quan software. The ratios between the kynurenine generated in the reaction and 2D6-Kynurenine spiked-in internal standard were used to generate percentage inhibition and IC50 values. Compounds were titrated and IC50's were calculated by 4 parameter sigmoidal curve fitting formula.

T1 sequence (P14902 whole entry): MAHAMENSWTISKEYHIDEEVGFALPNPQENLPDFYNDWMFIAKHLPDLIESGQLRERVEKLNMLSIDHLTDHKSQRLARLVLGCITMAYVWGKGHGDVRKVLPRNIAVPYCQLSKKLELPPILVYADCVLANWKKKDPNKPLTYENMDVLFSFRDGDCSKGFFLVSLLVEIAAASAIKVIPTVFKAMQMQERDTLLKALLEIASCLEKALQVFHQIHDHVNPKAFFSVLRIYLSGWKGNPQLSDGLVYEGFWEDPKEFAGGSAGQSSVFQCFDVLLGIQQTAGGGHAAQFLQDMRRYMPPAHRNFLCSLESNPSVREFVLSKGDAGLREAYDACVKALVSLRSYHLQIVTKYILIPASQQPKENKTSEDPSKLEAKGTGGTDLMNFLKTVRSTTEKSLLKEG

In the case of `Cc1cccc(N2CCN(C(=O)Cn3nc(C(=O)N4CC[C@H](O)[C@H](F)C4)c4c3CC(C(F)F)C4)CC2)c1C` (mixture of isomers) [Example 17, 2-[rac-5-(difluoromethyl)-3-[(3R,4S)-3-fluoro-4-hydroxy-piperidine-1-carbonyl]-5,6-dihydro-4H-cyclopenta[c]pyrazol-1-yl]-1-[4-(2,3-dimethylphenyl)piperazin-1-yl]ethanone], the IC50 turned out to be 10.9 nM on IDO1 [1] and 625 nM at IDO1 [2].

In the case of `Cc1cccc(N2CCN(C(=O)Cn3nc(C(=O)N4CCC(O)CC4)c4c3CC(C(F)F)C4)CC2)c1C` (racemic) [Example 16, 2-[rac-5-(difluoromethyl)-3-(4-hydroxypiperidine-1-carbonyl)-5,6-dihydro-4H-cyclopenta[c]pyrazol-1-yl]-1-[4-(2,3-dimethylphenyl)piperazin-1-yl]ethanone], the values for the IC50 on IDO1 [1] and at IDO1 [2] were 2.21 nM and 143 nM, respectively.

With `Cc1cccc(N2CCN(C(=O)Cn3nc(C(=O)N4CCC(OCCO)CC4)c4c3C[C@H]3C[C@@H]43)[C@H]3CCC[C@@H]32)c1C` (racemic) [Example 326, 1-[rac-(4aS,7aS or 4aR,7aR)-1-(2,3-dimethylphenyl)-3,4a,5,6,7,7a-hexahydro-2H-cyclopenta[b]pyrazin-4-yl]-2-[(2R,4R)-9-[4-(2-hydroxyethoxy)piperidine-1-carbonyl]-7,8-diazatricyclo[4.3.0.02,4]nona-1(6),8-dien-7-yl]ethanone], the IC50 was found to be 5.03 nM at IDO1 [1] and 813 nM on IDO1 [2].

With `Cc1cccc(N2CCN(C(=O)Cn3nc(C(=O)N4CCCC4)c4c3CCC(F)C4)CC2)c1C` (single isomer, unassigned) [Example 7, 1-(4-(2,3-dimethylphenyl)piperazin-1-yl)-2-(5-fluoro-3-(pyrrolidine-1-carbonyl)-4,5,6,7-tetrahydro-1H-indazol-1-yl)ethanone], the IC50 on IDO1 [1] was found to be 11.1 nM; on IDO1 [2], 934 nM.

On to `Cc1cccc(N2CCN(C(=O)Cn3nc(C(=O)N4CCCC4)c4c3CCC(F)C4)CC2)c1C` (single isomer, unassigned) [Example 8, 1-(4-(2,3-dimethylphenyl)piperazin-1-yl)-2-(5-fluoro-3-(pyrrolidine-1-carbonyl)-4,5,6,7-tetrahydro-1H-indazol-1-yl)ethanone], for which the results for the IC50 at IDO1 [1] and at IDO1 [2] were 11.3 nM and 2440 nM, respectively.

On to `Cc1cccc(N2CCN(C(=O)Cn3nc(C(=O)N4CCC(O)CC4)c4c3C[C@H](C(F)F)C4)CC2)c1C` (single isomer, unassigned) [Example 9], for which the results for the IC50 on IDO1 [1] and on IDO1 [2] were 4.26 nM and 126 nM, respectively.

For `Cc1cccc(N2CCN(C(=O)Cn3nc(C(=O)N4CCC(O)CC4)c4c3CC(C(F)F)C4)CC2)c1C` (single isomer, unassigned) [Example 10, 2-[5-(difluoromethyl)-3-(4-hydroxypiperidine-1-carbonyl)-5,6-dihydro-5H-cyclopenta[c]pyrazol-1-yl]-1-[4-(2,3-dimethylphenyl)piperazin-1-yl]ethanone], the IC50 at IDO1 [1] was determined as 1.74 nM; on IDO1 [2] it was 233 nM.

Consider `Cc1cccc(N2CCN(C(=O)Cn3nc(C(=O)N4CC[C@H](O)[C@H](F)C4)c4c3CC(C(F)F)C4)CC2)c1C` (single isomer, unassigned) [Example 11], for which the IC50 at IDO1 [1] worked out at 7.6 nM; at IDO1 [2] it was 980 nM.

As to `Cc1cccc(N2CCN(C(=O)Cn3nc(C(=O)N4CC[C@H](O)C(F)(F)C4)c4c3CCC4)CC2)c1C` (single isomer, unassigned) [Example 201, 2-[3-[(4S or 4R)-3,3-difluoro-4-hydroxy-piperidine-1-carbonyl]-5,6-dihydro-4H-cyclopenta[c]pyrazol-1-yl]-1-[4-(2,3-dimethylphenyl)piperazin-1-yl]ethanone], the IC50 at IDO1 [1] was 3.67 nM; at IDO1 [2], 1800 nM.

Regarding `Cc1cccc(N2CCN(C(=O)Cn3nc(C(=O)N4CC[C@@H](O)C(F)(F)C4)c4c3CCC4)CC2)c1C` (single isomer, unassigned) [Example 202, 2-[3-[(4R or 4S)-3,3-difluoro-4-hydroxy-piperidine-1-carbonyl]-5,6-dihydro-4H-cyclopenta[c]pyrazol-1-yl]-1-[4-(2,3-dimethylphenyl)piperazin-1-yl]ethanone], the IC50 worked out at 5.91 nM at IDO1 [1] and 516 nM on IDO1 [2].

For the compound `Cc1cccc(N2CCN(C(=O)Cn3nc(C(=O)N4CCC(O)C(F)C4)c4c3CCC4)C3(CC3)C2)c1C` (single isomer, unassigned) [Example 328, 1-[7-(2,3-dimethylphenyl)-4,7-diazaspiro[2.5]octan-4-yl]-2-[3-(3-fluoro-4-hydroxy-piperidine-1-carbonyl)-5,6-dihydro-4H-cyclopenta[c]pyrazol-1-yl]ethanone], the half-maximal inhibitory concentration (IC50) at IDO1 [1] amounted to 6.86 nM; at IDO1 [2] it was 4160 nM.

For `Cc1cccc(N2CCN(C(=O)Cn3nc(C(=O)N4CCC(O)C(F)C4)c4c3CCC4)C3(CC3)C2)c1C` (single isomer, unassigned) [Example 329, 1-[7-(2,3-dimethylphenyl)-4,7-diazaspiro[2.5]octan-4-yl]-2-[3-(3-fluoro-4-hydroxy-piperidine-1-carbonyl)-5,6-dihydro-4H-cyclopenta[c]pyrazol-1-yl]ethanone], the IC50 on IDO1 [1] came out at 7.2 nM; on IDO1 [2], 904 nM.

Regarding `Cc1cccc(N2CCN(C(=O)Cn3nc(C(=O)N4CCO[C@H](CO)C4)c4c3CCCC4)CC2)c1C` [Example 474, (S)-1-(4-(2,3-dimethylphenyl)piperazin-1-yl)-2-(3-(2-(hydroxymethyl)morpholine-4-carbonyl)-4,5,6,7-tetrahydro-1H-indazol-1-yl)ethanone], at IDO1 [1], the IC50 was determined as 4.21 nM.

In the case of `Cc1cccc(N2CCN(C(=O)Cn3nc(C(=O)N4CCC(O)(CF)CC4)c4c3CCC4)CC2)c1C` [Example 481, 1-(4-(2,3-dimethylphenyl)piperazin-1-yl)-2-(3-(4-(fluoromethyl)-4-hydroxypiperidine-1-carbonyl)-5,6-dihydrocyclopenta[c]pyrazol-1(4H)-yl) ethanone], the IC50 at IDO1 [1] came out at 10.6 nM.

Take `Cc1c(F)cccc1N1CCN(C(=O)Cn2nc(C(=O)N3CCC(O)CC3)c3c2CCC3)CC1` [Example 483, 1-(4-(3-fluoro-2-methylphenyl)piperazin-1-yl)-2-(3-(4-hydroxypiperidine-1-carbonyl)-5,6-dihydrocyclopenta[c]pyrazol-1(4H)-yl) ethanone]: the IC50 at IDO1 [1] came out at 41.6 nM.

As to `Cc1cccc(N2CCN(C(=O)Cn3nc(C(=O)N4CCC(O)(CF)C4)c4c3CCC4)CC2)c1C` (stereo not shown) [Example 485, 1-(4-(2,3-dimethylphenyl)piperazin-1-yl)-2-(3-(3-(fluoromethyl)-3-hydroxypyrrolidine-1-carbonyl)-5,6-dihydro-cyclopenta[c]pyrazol-1(4H)-yl)ethanone], the IC50 at IDO1 [1] came to 47.5 nM.

Consider `Cc1c(F)cccc1N1CCN(C(=O)Cn2nc(C(=O)N3CC[C@H](O)[C@H](F)C3)c3c2CCC3)CC1` [Example 486, 1-(4-(3-fluoro-2-methylphenyl)piperazin-1-yl)-2-(3-((3R,4S)-3-fluoro-4-hydroxypiperidine-1-carbonyl)-5,6-dihydro-cyclopenta[c]pyrazol-1(4H)-yl)ethanone], for which the IC50 at IDO1 [1] was found to be 128 nM.

Regarding `Cc1ccccc1N1CCN(C(=O)Cn2nc(C(=O)N3C[C@@H](C)O[C@@H](C)C3)c3c2CCC3)CC1` [Example 487, 2-(3-((2S,6R)-2,6-dimethylmorpholine-4-carbonyl)-5,6-dihydro-cyclopenta[c]pyrazol-1(4H)-yl)-1-(4-(o-tolyl)piperazin-1-yl)ethanone,], the IC50 at IDO1 [1] came to 51.4 nM.

Consider `Cc1cccc(N2CCN(C(=O)Cn3nc(C(=O)N4C[C@@H](C)O[C@@H](C)C4)c4c3CCC4)CC2)c1` [Example 488, 2-(3-((2S,6R)-2,6-dimethylmorpholine-4-carbonyl)-5,6-dihydrocyclopenta [c]pyrazol-1(4H)-yl)-1-(4-(m-tolyl)piperazin-1-yl)ethanone], for which the IC50 on IDO1 [1] amounted to 83.8 nM.
